In assay [1] the test system is TRAP gene expression, Raw 264.7 cells. The assay can be described thus: qRT-PCR TRAP gene expression, Raw 264.7 cells on hydrogels. The note with it: incorporated in FF/S/RGDH hydrogel, 10 ng/mL hRANKL. It is filed as cell-based. An excerpt: Fmoc-FF/S (Fmoc-diphenylalanine/serine, 1:1 molar ratio) and Fmoc-FF/S/RGD (1:0.5:0.5 molar ratio) peptides were provided by Biogelx Ltd., Edinburgh, UK. Hydroxyapatite (Hap) nanopowder (formula: Ca10(PO4)6(OH)2, with average particle size <200 nm) was purchased from Sigma-Aldrich (Dorset, UK, product code: 677418) and used as received. Hydrogels made up of Fmoc-based peptides and hydroxyapatite were fabricated as described previously. Hap-decorated Fmoc-FF/S/RGD hydrogels (FF/S/RGDH) were tested in combination with OP1_Hyp, OP1_Pro, and OCol1 to evaluate the contribution of OSCAR as a co-stimulatory pathway for OCP differentiation. […]
The day after hydrogel fabrication, 2 mL of Raw 264.7 cells (4 × 10^5 cells/mL) were seeded on top of FF/S/RGDH hydrogels containing the collagen-like OSCAR-binding peptides (OP1_Hyp, OP1_Pro) or recombinant collagen-like protein (OCol1). […] After 7 days of culture, cell viability on the peptide- or protein-modified FF/S/RGDH hydrogels was evaluated by using a LIVE/DEAD assay (ThermoFisher Scientific, Swindon, UK). […] After 30 min of incubation, cells were washed 3 times in PBS and imaged using a Nikon Eclipse 50i fluorescence microscope (Tokyo, Japan) (emission wavelengths: green channel for live cells: 515 nm; red channel for dead cells: 635 nm; excitation wavelength: 495 nm). […]
Gene expression of OC markers was evaluated as previously described. […]

The target of assay [2] is T1, recombinant human OSCAR-Fc chimera (Homo sapiens, UniProt Q8IYS5).
T1 construct: extracellular region of human OSCAR (Asp19-Asn229, NP_573399); purchased R&D Systems, Bio-Techne 9955-OS
T1 sequence (Q8IYS5 19-229 isoform Q8IYS5-2): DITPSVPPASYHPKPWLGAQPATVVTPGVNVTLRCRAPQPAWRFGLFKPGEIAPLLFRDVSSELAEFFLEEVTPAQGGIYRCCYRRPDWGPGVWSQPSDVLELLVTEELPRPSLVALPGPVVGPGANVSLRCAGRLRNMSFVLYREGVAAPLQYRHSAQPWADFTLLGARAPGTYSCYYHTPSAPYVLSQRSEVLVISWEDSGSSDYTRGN
The assay can be described thus: Surface plasmon resonance (SPR) analysis of the peptide-OSCAR interaction. It is filed as binding. The note with it: immobilised human OSCAR-Fc, 25 °C, pH 7.4. Here is the method: Surface plasmon resonance (SPR) was used to determine the binding affinity between OP1_Hyp or OP1_Pro and a recombinant human OSCAR-Fc chimera made from the extracellular region of human OSCAR (Asp19-Asn229, NP_573399) and the Fc domain from human IgG1 (Pro100-Lys330, P01857-1). A kinetic analysis was performed with immobilised OSCAR-Fc, OP1_Hyp, and OP1_Pro as analytes. A Langmuir 1:1 model was used to perform the kinetic analysis. This model is based on a simple interaction between ligand and analytes where a 1:1 molar complex is formed at equilibrium, i.e., A + B ⇄ AB. The kinetics of the reaction are determined by the association and dissociation rate constants (ka and kd, respectively), with an overall affinity constant (KD) given by KD = kd/ka.
SPR analyses were carried out on a Biacore™ T200 (Cytiva) using a Series S CM5 sensor chip with an assay running buffer of 10 mM PBS, 150 mM NaCl, 0.05% Tween20, pH 7.4. Reference and active flow cells were activated by injecting 70 μL of a 1:1 mixture of 0.2 M 1-ethyl-3-(3-dimethylaminopropyl)-carbodiimide (EDC) and 0.1 M N-hydroxysuccinimide (NHS) at 10 µL/min. Recombinant human OSCAR-Fc chimera (R&D Systems, Bio-Techne, Minneapolis, MN, USA, 9955-OS) was immobilised onto the active flow cell at 20 µg/mL in 10 mM sodium acetate pH 5.0 at 10 µL/min to 6880 response units (RU). Reference and active flow cells were blocked using 1 M ethanolamine, pH 8, at a flow rate of 10 µL/min. For kinetic and equilibrium binding analysis, OP1_Hyp and OP1_Pro peptides were flowed at 25 °C active and reference flow cells at 30 µL/min in assay running buffer at peptide concentrations of 5000—0 nM (OP1_Hyp) and 40,000—0 nM (OP1_Pro), using a dilution series. Surfaces were regenerated with a 10 s injection of 0.1 M glycine, pH 2.0. Data sets were analysed with the built-in BiaEvaluation software (version 4.1). The models used for analysis were the Langmuir 1:1 binding model and the steady-state analysis model. Data are presented as the mean and standard error of the mean (SEM) of triplicate runs.
In general terms: In SPR one partner is held on a chip, and binding of the other changes the refractive index at the surface.

Where a SMILES comes first, the peptide text is derived from it. [ ]: non-standard residue; d: D form. Hyp = O=C(O)[C@@H]1C[C@@H](O)CN1

As for `CC(=O)NCC(=O)N1CCC[C@H]1C(=O)N1C[C@H](O)C[C@H]1C(=O)NCC(=O)N1CCC[C@H]1C(=O)N1C[C@H](O)C[C@H]1C(=O)NCC(=O)N1CCC[C@H]1C(=O)N1C[C@H](O)C[C@H]1C(=O)NCC(=O)N[C@@H](C)C(=O)N1C[C@H](O)C[C@H]1C(=O)NCC(=O)N1CCC[C@H]1C(=O)N[C@@H](C)C(=O)NCC(=O)N[C@@H](Cc1ccccc1)C(=O)N[C@@H](C)C(=O)NCC(=O)N1CCC[C@H]1C(=O)N1C[C@H](O)C[C@H]1C(=O)NCC(=O)N1CCC[C@H]1C(=O)N1C[C@H](O)C[C@H]1C(=O)NCC(=O)N1CCC[C@H]1C(=O)N1C[C@H](O)C[C@H]1C(N)=O` [OP1_Hyp] (Ac-GP[Hyp]GP[Hyp]GP[Hyp]GA[Hyp]GPAGFAGP[Hyp]GP[Hyp]GP[Hyp]-NH2), the “TRAP expression, day 3 to day 7 (comparison with literature)” value in assay [1] is “increased significantly between day 3 and day 7 of culture”. For the same molecule, in assay [2], the “Association/dissociation behaviour in sensorgrams” value is “a progressive binding phase to OSCAR with a slow release at all the concentrations tested”.

The values are drawn from PMC10779143, “Collagen-like Osteoclast-Associated Receptor (OSCAR)-Binding Motifs Show a Co-Stimulatory Effect on Osteoclastogenesis in a Peptide Hydrogel System” (International Journal of Molecular Sciences, 2023).
